According to the NIST ThermoML archive (doi:10.1016/j.jct.2018.12.013):

Settings: Liquid, Gas chromatography

C=CC(=C)CCC=C(C)C [2-methyl-6-methylene-2,7-octadiene]
Settings | vapor or sublimation pressure [kPa]
287.7 K | 0.1
297.15 K | 0.21
298.15 K | 0.22
313.2 K | 0.57
320.4 K | 0.87
323.2 K | 1
328.2 K | 1.3
330 K | 1.5
333.3 K | 1.8
338.2 K | 2.3
340.2 K | 2.5
343.5 K | 2.9
348.2 K | 3.7
353.2 K | 4.6
353.4 K | 4.6
355.8 K | 5.2
358.2 K | 5.7
360 K | 6.2
363.3 K | 7.1
365.8 K | 7.9
366.2 K | 8
370 K | 9.4
371.9 K | 10
379.2 K | 13
385 K | 17
390 K | 20
399.2 K | 27
410 K | 38
418.2 K | 49
421.5 K | 54
428.2 K | 65
433.5 K | 76
439.1 K | 90
444.7 K | 101

CC1(C)C2=CCCC(C)(C)[C@]23CC[C@H]1C3 [(-)-isolongifolene]
Settings | vapor or sublimation pressure [kPa]
298.15 K | 0.0043
310 K | 0.011
320 K | 0.023
330 K | 0.046
340 K | 0.086
350 K | 0.16
360 K | 0.27
370 K | 0.46
378.2 K | 0.69
380.2 K | 0.76
386.2 K | 1
388.2 K | 1.1
392.2 K | 1.3
393.2 K | 1.4
395 K | 1.5
400 K | 1.8
410 K | 2.8
419.2 K | 4
424.2 K | 4.8
430 K | 6
440 K | 8.5
450 K | 11.8
460 K | 16
470 K | 22
480 K | 29
490 K | 38
500 K | 50
510 K | 63.88
520 K | 81
527 K | 95.41
528.2 K | 100
529.6 K | 101
